The assay addresses Beta-3 Adrenergic Receptor (Homo sapiens (Human), UniProt P13945). Put plainly: Homogeneous Time-Resolved Fluorescence (HTRF) cAMP antagonist assay, IC50 determination. Format: cell-based. To be noted: CHO-K1 cells stably expressing recombinant receptor, isoproterenol at EC90. An outline of the steps: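 In this functional readout, recombinant CHO-K1 cells received compound, then isoproterenol at its EC90. After 1 h at room temperature, cAMP levels were determined by HTRF using an on-plate standard curve, and IC50 values were fitted.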
Beta-3 Adrenergic Receptor, sequence (P13945 whole entry, species assumed): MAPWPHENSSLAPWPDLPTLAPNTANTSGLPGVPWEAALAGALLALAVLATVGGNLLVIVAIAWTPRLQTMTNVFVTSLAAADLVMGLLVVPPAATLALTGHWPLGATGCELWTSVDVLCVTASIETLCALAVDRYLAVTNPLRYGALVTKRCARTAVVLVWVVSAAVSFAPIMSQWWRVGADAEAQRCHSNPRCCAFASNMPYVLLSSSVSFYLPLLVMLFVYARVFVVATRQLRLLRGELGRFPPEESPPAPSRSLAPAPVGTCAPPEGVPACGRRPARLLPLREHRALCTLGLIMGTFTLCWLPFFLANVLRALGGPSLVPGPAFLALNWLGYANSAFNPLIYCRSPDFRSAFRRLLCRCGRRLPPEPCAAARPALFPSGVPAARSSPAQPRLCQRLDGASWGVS
Take `CCNS(=O)(=O)c1cccc(OC[C@@H](O)CNC2COC3(CCN(S(=O)(=O)c4cc(C)ccc4F)CC3)C2)c1` (stereo partly drawn) [Compound 226, N-ethyl-3-((2S)-3-(8-(2-fluoro-5-methylphenylsulfonyl)-1-oxa-8-azaspiro[4.5]decan-3-ylamino)-2-hydroxypropoxy)benzenesulfonamide]: the IC50 was 155 nM.
On to `CCNS(=O)(=O)c1cccc(OC[C@@H](O)CNC2COC3(CCN(S(=O)(=O)c4ccc(Br)c(C)c4)CC3)C2)c1` (stereo partly drawn) [Compound 227, 3-((2S)-3-(8-(4-bromo-3-methylphenylsulfonyl)-1-oxa-8-azaspiro[4.5]decan-3-ylamino)-2-hydroxypropoxy)-N-ethylbenzenesulfonamide], for which the 50% inhibitory concentration (IC50) came out at 31.3 nM.
Under `CCNS(=O)(=O)c1cccc(OC[C@@H](O)CNC2COC3(CCN(S(=O)(=O)c4ccc5c(c4)NC(=O)CO5)CC3)C2)c1` (stereo partly drawn) [Compound 228, N-ethyl-3-((2S)-2-hydroxy-3-(8-(3-oxo-3,4-dihydro-2H-benzo[b][1,4]oxazin-6-ylsulfonyl)-1-oxa-8-azaspiro[4.5]decan-3-ylamino)propoxy)benzenesulfonamide] stands 24.2 nM; under `CCNS(=O)(=O)c1cccc(OC[C@@H](O)CNC2COC3(CCN(S(=O)(=O)c4ccc5nsnc5c4)CC3)C2)c1` (stereo partly drawn) [Compound 229, 3-((2S)-3-(8-(benzo[c][1,2,5]thiadiazol-5-ylsulfonyl)-1-oxa-8-azaspiro[4.5]decan-3-ylamino)-2-hydroxypropoxy)-N-ethylbenzenesulfonamide], 272 nM; under `CCNS(=O)(=O)c1cccc(OC[C@@H](O)CNC2COC3(CCN(S(=O)(=O)c4cnn(-c5ccccc5)c4C)CC3)C2)c1` (stereo partly drawn) [Compound 230, N-ethyl-3-((2S)-2-hydroxy-3-(8-(5-methyl-1-phenyl-1H-pyrazol-4-ylsulfonyl)-1-oxa-8-azaspiro[4.5]decan-3-ylamino)propoxy)benzenesulfonamide], 85.4 nM.
The same measure for `CCNS(=O)(=O)c1cccc(OC[C@@H](O)CNC2COC3(CCN(S(=O)(=O)c4ccc5c(c4)CCCC5)CC3)C2)c1` (stereo partly drawn) [Compound 231, N-ethyl-3-((2S)-2-hydroxy-3-(8-(5,6,7,8-tetrahydronaphthalen-2-ylsulfonyl)-1-oxa-8-azaspiro[4.5]decan-3-ylamino)propoxy)benzenesulfonamide]: 72.6 nM; for `CCNS(=O)(=O)c1cccc(OC[C@@H](O)CNC2COC3(CCN(S(=O)(=O)c4c(C)noc4C)CC3)C2)c1` (stereo partly drawn) [Compound 232, 3-((2S)-3-(8-(3,5-dimethylisoxazol-4-ylsulfonyl)-1-oxa-8-azaspiro[4.5]decan-3-ylamino)-2-hydroxypropoxy)-N-ethylbenzenesulfonamide]: 188 nM.
Under `CCNS(=O)(=O)c1cccc(OC[C@@H](O)CNC2COC3(CCN(S(=O)(=O)c4ccc(-c5ccccc5)s4)CC3)C2)c1` (stereo partly drawn) [Compound 233, N-ethyl-3-((2S)-2-hydroxy-3-(8-(5-phenylthiophen-2-ylsulfonyl)-1-oxa-8-azaspiro[4.5]decan-3-ylamino)propoxy)benzenesulfonamide] stands 156 nM; under `CCNS(=O)(=O)c1cccc(OC[C@@H](O)CNC2COC3(CCN(S(=O)(=O)c4ccc5c(c4)N(C)CCO5)CC3)C2)c1` (stereo partly drawn) [Compound 234, N-ethyl-3-((2S)-2-hydroxy-3-(8-(4-methyl-3,4-dihydro-2H-benzo[b][1,4]oxazin-6-ylsulfonyl)-1-oxa-8-azaspiro[4.5]decan-3-ylamino)propoxy)benzenesulfonamide], 52.6 nM.
Regarding `CCNS(=O)(=O)c1cccc(OC[C@@H](O)CNC2COC3(CCN(S(=O)(=O)c4ccc(Cl)c5nonc45)CC3)C2)c1` (stereo partly drawn) [Compound 235, 3-((2S)-3-(8-(7-chlorobenzo[c][1,2,5]oxadiazol-4-ylsulfonyl)-1-oxa-8-azaspiro[4.5]decan-3-ylamino)-2-hydroxypropoxy)-N-ethylbenzenesulfonamide], the IC50 is 108 nM.
Under `CNS(=O)(=O)c1cccc(OC[C@@H](O)CNC2COC3(CCN(S(=O)(=O)c4ccc(OC)cc4C)CC3)C2)c1` (stereo partly drawn) [Compound 236, 3-((2S)-2-hydroxy-3-(8-(4-methoxy-2-methylphenylsulfonyl)-1-oxa-8-azaspiro[4.5]decan-3-ylamino)propoxy)-N-methylbenzenesulfonamide] stands 54.9 nM; under `CNS(=O)(=O)c1cccc(OC[C@@H](O)CNC2COC3(CCN(S(=O)(=O)c4cc(Br)ccc4C)CC3)C2)c1` (stereo partly drawn) [Compound 237, 3-((2S)-3-(8-(5-bromo-2-methylphenylsulfonyl)-1-oxa-8-azaspiro[4.5]decan-3-ylamino)-2-hydroxypropoxy)-N-methylbenzenesulfonamide], 42.8 nM.
Under `CNS(=O)(=O)c1cccc(OC[C@@H](O)CNC2COC3(CCN(S(=O)(=O)c4cc(F)ccc4OC)CC3)C2)c1` (stereo partly drawn) [Compound 238, 3-((2S)-3-(8-(5-fluoro-2-methoxyphenylsulfonyl)-1-oxa-8-azaspiro[4.5]decan-3-ylamino)-2-hydroxypropoxy)-N-methylbenzenesulfonamide] stands 38.4 nM.
Regarding `CNS(=O)(=O)c1cccc(OC[C@@H](O)CNC2COC3(CCN(S(=O)(=O)c4ccc(C#N)c(Cl)c4)CC3)C2)c1` (stereo partly drawn) [Compound 239, 3-((2S)-3-(8-(3-chloro-4-cyanophenylsulfonyl)-1-oxa-8-azaspiro[4.5]decan-3-ylamino)-2-hydroxypropoxy)-N-methylbenzenesulfonamide], the IC50 came to 22.3 nM.
Under `CNS(=O)(=O)c1cccc(OC[C@@H](O)CNC2COC3(CCN(S(=O)(=O)c4cc(Cl)ccc4C)CC3)C2)c1` (stereo partly drawn) [Compound 240, 3-((2S)-3-(8-(5-chloro-2-methylphenylsulfonyl)-1-oxa-8-azaspiro[4.5]decan-3-ylamino)-2-hydroxypropoxy)-N-methylbenzenesulfonamide] stands 28.4 nM; under `CNS(=O)(=O)c1cccc(OC[C@@H](O)CNC2COC3(CCN(S(=O)(=O)c4cc(OC)ccc4F)CC3)C2)c1` (stereo partly drawn) [Compound 241, 3-((2S)-3-(8-(2-fluoro-5-methoxyphenylsulfonyl)-1-oxa-8-azaspiro[4.5]decan-3-ylamino)-2-hydroxypropoxy)-N-methylbenzenesulfonamide], 27.8 nM.
Under `CNS(=O)(=O)c1cccc(OC[C@@H](O)CNC2COC3(CCN(S(=O)(=O)c4ccc(OC)c(C)c4C)CC3)C2)c1` (stereo partly drawn) [Compound 242, 3-((2S)-2-hydroxy-3-(8-(4-methoxy-2,3-dimethylphenylsulfonyl)-1-oxa-8-azaspiro[4.5]decan-3-ylamino)propoxy)-N-methylbenzenesulfonamide] stands 420 nM; under `CNS(=O)(=O)c1cccc(OC[C@@H](O)CNC2COC3(CCN(S(=O)(=O)c4cnn(-c5ccccc5)c4)CC3)C2)c1` (stereo partly drawn) [Compound 243, 3-((2S)-2-hydroxy-3-(8-(1-phenyl-1H-pyrazol-4-ylsulfonyl)-1-oxa-8-azaspiro[4.5]decan-3-ylamino)propoxy)-N-methylbenzenesulfonamide], 26.2 nM; under `CNS(=O)(=O)c1cccc(OC[C@@H](O)CN[C@@H]2COC3(CCN(S(=O)(=O)c4cccc5nsnc45)CC3)C2)c1` [Compound 244, 3-((S)-3-((S)-8-(benzo[c][1,2,5]thiadiazol-4-ylsulfonyl)-1-oxa-8-azaspiro[4.5]decan-3-ylamino)-2-hydroxypropoxy)-N-methylbenzenesulfonamide], 76.1 nM.

In general, IC50 refers to the midpoint of a concentration-inhibition curve.

These data come from patent US11987588B2, “Modulators of the beta-3 adrenergic receptor useful for the treatment or prevention of heart failure and disorders related thereto” (Arena Pharmaceuticals, Inc., priority 2017, dated 2024).
